Laboratory results as given in patent US7667052B2 (Eisai R&D Management Co., Ltd., priority 2003, dated 2010).

These molecules were tested on transcription from VEGF promoter (assay: VEGF transcription-suppressing activity, VEGF-PLAP reporter in U251/1-8 cell). Settings: Homo sapiens, U-251; U251/1-8 cell, PLAP activity, low oxygen 18 hours; read-out: IC50 values of VEGF transcription-suppressing activity (range given).
Type: cell-based
Description: In order to prepare reporter system reflecting transcription from VEGF promoter, VEGF promoter sequence was cloned, and inserted in secretory alkali phosphatase (PLAP) vector to construct reporter vector.
In order to obtain the promoter region of human VEGF, VEGF genome was cloned from phage library. PCR primers having the sequences described in Sequence Numbers 1 and 2 were designed based on VEGF cDNA (GenBank accession number: X62568) and a fragment having about 340 bp was obtained by carrying out PCR. Human genome phage library (Human genomic library, Clontech Co.) was screened using this as a probe to obtain pUC18-VEGFA containing about 5.4 kb of VEGF 5′ flanking region. The pUC18-VEGFA was cleaved by KpnI/NheI, VEGF promoter region of about 2.3 kb obtained was inserted in the multi cloning site KpnI/NheI of secretory alkali phosphatase (PLAP) vector (Goto et al, Mol. Pharmacol., 49, 860-873, 1996), and thus, VEGF-PLAP vector was constructed.
The above-mentioned VEGF-PLAP vector was introduced in the U251 cell cultured in the DULBECCO-modified eagle medium (DMEM; manufactured by SIGMA Co., Ltd.) containing 10% fetal calf serum, and cultured in the presence of 1 mg/ml G418 (Merck Co.) to establish G418 resistant stable clone (U251/1-8 cell).
It was confirmed that U251/1-8 cell secreted PLAP under low oxygen (2% O2 incubator) in the same manner as in the report (Cell. Mol. Biol. Res. 40, 35-39, 1994) and was a reporter system reflecting the transcription from VEGF promoter. The screening of the compound suppressing VEGF production which was induced by low oxygen stimulation was carried out below using the clone.
In order to remove the influence of alkaline phosphates in serum, U251/1-8 cell was rinsed twice with the adequate amount of PBS (Phosphate buffered saline), diluted in the DMEM medium containing 10% of serum in which alkaline phosphates was inactivated by the treatment of 60° C. for 20 min., and dispensed in 96-well plates by 4×10^4 cells/180 μl.
After culturing at 37° C. overnight in a CO2 incubator (5% CO2), 20 μL of the above-mentioned incubation solution containing the test compound diluted with 3-fold succession was added, and then they were incubated in a low oxygen ([…]) incubator for 18 hours. With respect to the PLAP activity in the culture supernatants, 10 μl of the supernatants was added to 50 μl of 0.28 M Na2CO3—NaHCO3 buffer solution (pH 10.0, 8.0 mM MgSO4), and finally 50 μl of alkaline phosphatase substrate (LUMISTEIN, Genomescience Co.) was added. After reacting for one hour, the alkaline phosphatase activity of the PLAP was measured by detecting the chemical luminescence by a micro plate reader (Perkin-Elmer Co.).
The PLAP activity under usual oxygen was set as 0%, the PLAP activity of cell which was treated under low oxygen was set as 100%, and the concentration suppressing the PLAP activity by 50% was set as the IC50 value of PLAP.
Molecule `CCC(O)C(C)C1OC1CC(C)/C=C/C=C(\C)C1OC(=O)CC(O)CCC(C)(O)C(OC(=O)c2ccccc2)/C=C/C1C` (centres unmarked) [B41, (8E,12E,14E)-7-Benzoyloxy-3,6,21-trihydroxy-6,10,12,16,20-pentamethyl-18,19-epoxytricosa-8,12,14-trien-11-olide] has an IC50 of 0.5 to 100 nM.
`CCC(O)C(C)C(O)C(Br)CC(C)/C=C/C=C(\C)C1OC(=O)CC(O)CCC(C)(O)C(OC(C)=O)/C=C/C1C` (centres unmarked) [B2-1, (8E,12E,14E)-7-Acetoxy-18-bromo-3,6,19,21-tetrahydroxy-6,10,12,16,20-pentamethyltricosa-8,12,14-trien-11-olide] was tested, and the IC50 was 0.5 to 100 nM.
Molecule `CCC(O)C(C)C1OC1C(O)C(C)/C=C/C=C(\C)C1OC(=O)CC(O)CCC(C)(O)C(OC(C)=O)/C=C/C1C` (centres unmarked) [11107P] has an IC50 of 1 to 100 nM.
In the case of `CCC(O)C(C)C1OC1CC(C)/C=C/C=C(\C)C1OC(=O)CC(OC(N)=O)CCC(C)(O)C(OC(C)=O)/C=C/C1C` (centres unmarked) [B35-1, (8E,12E,14E)-7-Acetoxy-3-carbamoyloxy-6,21-dihydroxy-6,10,12,16,20-pentamethyl-18,19-epoxytricosa-8,12,14-trien-11-olide], the IC50 is reported as 0.5 to 100 nM.
Molecule `CCC(OC(=O)CO)C(C)C1OC1CC(C)/C=C/C=C(\C)C1OC(=O)CC(O)CCC(C)(O)C(OC(C)=O)/C=C/C1C` (centres unmarked) [B27] has an IC50 of 0.5 to 100 nM.
Molecule `CCC(O)C(C)C1OC1CC(C)/C=C/C=C(\C)C1OC(=O)CC(O)CCC(C)(O)C(OC(=O)N2CCCNCC2)/C=C/C1C` (centres unmarked) [B61, (8E,12E,14E)-3,6,21-Trihydroxy-6,10,12,16,20-pentamethyl-7-((homopiperazin-1-yl)carbonyl)oxy-18,19-epoxytricosa-8,12,14-trien-11-olide] has an IC50 of 0.5 to 100 nM.
`CCC(O)C(C)C1OC1CC(C)/C=C/C=C(\C)C1OC(=O)CC(O)/C=C/C(C)(O)C(OC(C)=O)/C=C/C1C` (centres unmarked) [11107H] gave an IC50 of 1 to 100 nM.
`CCC(O)C(C)C1OC1CC(C)/C=C/C=C(\C)C1OC(=O)CC(O)CCC(C)(O)C(OC(=O)NCCN2CCCC2)/C=C/C1C` (centres unmarked) [B64, (8E,12E,14E)-3,6,21-Trihydroxy-6,10,12,16,20-pentamethyl-7-N-(2-(pyrrolidin-1-yl)ethyl)carbamoyloxy-18,19-epoxytricosa-8,12,14-trien-11-olide] was tested, and the IC50 was 0.5 to 100 nM.
With `CCC(OC(=O)c1ccccc1)C(C)C1OC1CC(C)/C=C/C=C(\C)C1OC(=O)CC(O)CCC(C)(O)C(OC(C)=O)/C=C/C1C` (centres unmarked) [B30-3, (8E,12E,14E)-7-acetoxy-21-benzoloxy-3,6-dihydroxy-6,10,12,16,20-pentamethyl-18,19-epoxytricosa-8,12,14-trien-11-olide] the IC50 was 0.5 to 100 nM.
`CCC(O)C(C)C1OC1CC(C)/C=C/C=C(\C)C1OC(=O)CC(O)CCC(C)(O)C(OC(=O)NC(=O)CCl)/C=C/C1C` (centres unmarked) [B69, (8E,12E,14E)-7-(N-Chloroacetyl)carbamoyloxy-3,6,21-trihydroxy-6,10,12,16,20-pentamethyl-18,19-epoxytricosa-8,12,14-trien-11-olide] was tested, and the IC50 was 0.5 to 100 nM.
In the case of `CCC(O)C(C)C1OC1CC(C)/C=C/C=C(\C)C1OC(=O)CC(O)CCC(C)(O)C(OC(=O)N(C)C2CCN(C)CC2)/C=C/C1C` (centres unmarked) [B80, (8E,12E,14E)-3,6,21-Trihydroxy-6,10,12,16,20-pentamethyl-7-N-methyl-N-(1-methylpiperidin-4-yl)carbamoyloxy-18,19-epoxytricosa-8,12,14-trien-11-olide], the IC50 is reported as 0.5 to 100 nM.
`CCC(O)C(C)C1OC1CC(C)/C=C/C=C(\C)C1OC(=O)CC(O)CCC(C)(O)C(OC(=O)NCc2ccccn2)/C=C/C1C` (centres unmarked) [B56, (8E,12E,14E)-3,6,21-Trihydroxy-6,10,12,16,20-pentamethyl-7-N-(2-pyridylmethyl)carbamoyloxy-18,19-epoxytricosa-8,12,14-trien-11-olide] showed an IC50 of 0.5 to 100 nM.
`CCC(O)C(C)C1OC1CC(C)/C=C/C=C(\C)C1OC(=O)CC(O)CCC(C)(O)C(OC(=O)NC2CCN(C)CC2)/C=C/C1C` (centres unmarked) [B79, (8E,12E,14E)-3,6,21-Trihydroxy-6,10,12,16,20-pentamethyl-7-N-(1-methylpiperidin-4-yl)carbamoyloxy-18,19-epoxytricosa-8,12,14-trien-11-olide] gave an IC50 of 0.5 to 100 nM.
Molecule `CCC(OC(C)=O)C(C)C(Br)C(CC(C)/C=C/C=C(\C)C1OC(=O)CC(O)CCC(C)(O)C(OC(C)=O)/C=C/C1C)OC(C)=O` (centres unmarked) [B23-1, (8E,12E,14E)-7,18,21-Triacetoxy-19-bromo-3,6-dihydroxy-6,10,12,16,20-pentamethyltricosa-8,12,14-trien-11-olide] has an IC50 of 0.5 to 100 nM.
With `CCC(O)C(C)C1OC1CC(C)/C=C/C=C(\C)C1OC(=O)CC(O)CCC(C)(O)C(OC(=O)NC2CC(C)(C)N(C)C(C)(C)C2)/C=C/C1C` (centres unmarked) [B82, (8E,12E,14E)-3,6,21-Trihydroxy-6,10,12,16,20-pentamethyl-7-N-(1,2,2,6,6-pentamethylpiperidin-4-yl)carbamoyloxy-18,19-epoxytricosa-8,12,14-trien-11-olide] the IC50 was 0.5 to 100 nM.
Molecule `CCC(O)C(C)C(O)C(Cl)CC(C)/C=C/C=C(\C)C1OC(=O)CC(O)CCC(C)(O)C(OC(C)=O)/C=C/C1C` (centres unmarked) [B1-2, (8E,12E,14E)-7-acetoxy-18-chloro-3,6,19,21-tetrahydroxy-6,10,12,16,20-pentamethyltricosa-8,12,14-trien-11-olide] has an IC50 of 0.5 to 100 nM.
Molecule `CC/C(=N\OCc1ccccc1)C(C)C1OC1CC(C)/C=C/C=C(\C)C1OC(=O)CC(O)CCC(C)(O)C(OC(C)=O)/C=C/C1C` (centres unmarked) [B75, (8E,12E,14E)-7-Acetoxy-21-benzyloxyimino-3,6-dihydroxy-6,10,12,16,20-pentamethyl-18,19-epoxytricosa-8,12,14-trien-11-olide] has an IC50 of 0.5 to 100 nM.
In the case of `CCC(OC(C)=O)C(C)C(OC(C)=O)C(Cl)CC(C)/C=C/C=C(\C)C1OC(=O)CC(O)CCC(C)(O)C(OC(C)=O)/C=C/C1C` (centres unmarked) [B21-4, (8E,12E,14E)-7,19,21-triacetoxy-18-chloro-3,6-dihydroxy-6,10,12,16,20-pentamethyltricosa-8,12,14-trien-11-olide], the IC50 is reported as 0.5 to 100 nM.
`CCC(O)C(C)C1OC1CC(C)/C=C/C=C(\C)C1OC(=O)CC(O)CCC(C)(O)C(OC(=O)N2CCN(C(C)=O)CC2)/C=C/C1C` (centres unmarked) [B51, (8E,12E,14E)-7-((4-Acetylpiperazin-1-yl)carbonyl)oxy-3,6,21-trihydroxy-6,10,12,16,20-pentamethyl-18,19-epoxytricosa-8,12,14-trien-11-olide] was tested, and the IC50 was 0.5 to 100 nM.
Molecule `CC/C(=N\OC)C(C)C1OC1CC(C)/C=C/C=C(\C)C1OC(=O)CC(O)CCC(C)(O)C(OC(C)=O)/C=C/C1C` (centres unmarked) [B74, (8E,12E,14E)-7-Acetoxy-3,6-dihydroxy-21-methoxyimino-6,10,12,16,20-pentamethyl-18,19-epoxytricosa-8,12,14-trien-11-olide] has an IC50 of 0.5 to 100 nM.
`CCC(O)C(C)C1OC1CC(C)/C=C/C=C(\C)C1OC(=O)CC(O)CCC(C)(O)C(OC(=O)N2CCNCC2)/C=C/C1C` (centres unmarked) [B52, (8E,12E,14E)-3,6,21-Trihydroxy-6,10,12,16,20-pentamethyl-7-((piperazin-1-yl)carbonyl)oxy-18,19-epoxytricosa-8,12,14-trien-11-olide] gave an IC50 of 0.5 to 100 nM.
In the case of `CCC(OC(C)=O)C(C)C(O)C(Cl)CC(C)/C=C/C=C(\C)C1OC(=O)CC(O)CCC(C)(O)C(OC(C)=O)/C=C/C1C` (centres unmarked) [B21-2, (8E,12E,14E)-7,21-diacetoxy-18-chloro-3,6,19-trihydroxy-6,10,12,16,20-pentamethyltricosa-8,12,14-trien-11-olide], the IC50 is reported as 0.5 to 100 nM.
With `CCC(OS(=O)(=O)c1ccc(C)cc1)C(C)C1OC1CC(C)/C=C/C=C(\C)C1OC(=O)CC(O)CCC(C)(O)C(OC(C)=O)/C=C/C1C` (centres unmarked) [B17, (8E,12E,14E)-7-Acetoxy-3,6-dihydroxy-21-(toluene-4-sulfonyloxy)-6,10,12,16,20-pentamethyl-18,19-epoxytricosa-8,12,14-trien-11-olide] the IC50 was 0.5 to 100 nM.
Molecule `CCC(O)C(C)C1OC1CC(C)/C=C/C=C(\C)C1OC(=O)CC(O)CCC(C)(O)C(OC(=O)NC)/C=C/C1C` (centres unmarked) [B45, (8E,12E,14E)-3,6,21-Trihydroxy-6,10,12,16,20-pentamethyl-7-N-methylcarbamoyloxy-18,19-epoxytricosa-8,12,14-trien-11-olide] has an IC50 of 0.5 to 100 nM.
With `CCC(O)C(C)C1OC1CC(C)/C=C/C=C(\C)C1OC(=O)CC(O)CCC(C)(O)C(OC(=O)N2CCC(N3CCCCC3)CC2)/C=C/C1C` (centres unmarked) [B77] the IC50 was 0.5 to 100 nM.

Same assay, conditions: Homo sapiens, U-251; U251/1-8 cell, PLAP activity, low oxygen 18 hours; read-out: VEGF transcription suppressing activity (IC50: nM)
Work on `CCC(O)C(C)C1OC1CC(C)/C=C/C=C(\C)C1OC(=O)CC(O)/C=C/C(C)(O)C(OC(C)=O)/C=C/C1C` (centres unmarked) [11107H] yielded an IC50 of 3.1 nM.
